{"source": "patent US8679765B2", "about": "“Methods and compositions for diagnosis and treatment of malignant and non-malignant gammopathies” (Ludwig Institute for Cancer Research Ltd., priority 2009, dated 2014)", "molecules": {"B1": {"name": "MPMGp800J11592: RZPD clone, NM_001294.1 (protein, UniProt O96005 2-669, looked up)", "Putative lipid scramblase …": "AAAQEADGARSAVVAAGGGSSGQVTSNGSIGRDPPAETQPQNPPAQPAPNAWQVIKGVLFRIFIIWAISSWFRRGPAPQDQAGPGGAPRVASRNLFPKDTLMNLHVYISEHEHFTDFNATSALFWEQHDLVYGDWTSGENSDGCYEHFAELDIPQSVQQNGSIYIHVYFTKSGFHPDPRQKALYRRLATVHMSRMINKYKRRRFQKTKNLLTGETEADPEMIKRAEDYGPVEVISHWHPNITINIVDDHTPWVKGSVPPPLDQYVKFDAVSGDYYPIIYFNDYWNLQKDYYPINESLASLPLRVSFCPLSLWRWQLYAAQSTKSPWNFLGDELYEQSDEEQDSVKVALLETNPYLLALTIIVSIVHSVFEFLAFKNDIQFWNSRQSLEGLSVRSVFFGVFQSFVVLLYILDNETNFVVQVSVFIGVLIDLWKITKVMDVRLDREHRVAGIFPRLSFKDKSTYIESSTKVYDDMAFRYLSWILFPLLGCYAVYSLLYLEHKGWYSWVLSMLYGFLLTFGFITMTPQLFINYKLKSVAHLPWRMLTYKALNTFIDDLFAFVIKMPVMYRIGCLRDDVVFFIYLYQRWIYRVDPTRVNEFGMSGEDPTAAAPVAEVPTAAGALTPTPAPTTTTATREEASTSLPTKPTQGASSASEPQEAPPKPAEDKKKD"}, "B2": {"name": "MPMGp800B22602: RZPD clone, NM_006762.1 (protein)", "chain": "MDPRLSTVRQTCCCFNVRIATTALAIYHVIMSVLLFIEHSVEVAHGKASCKLSQMGYLRIADLISSFLLITMLFIISLSLLIGVVKNREKYLLPFLSLQIMDYLLCLLTLLGSYIELPAYLKLASRSRASSSKFPLMTLQLLDFCLSILTLCSSYMEVPTYLNFKSMNHMNYLPSQEDMPHNQFIKMMIIFSIAFITVLIFKVYMFKCVWRCYRLIKCMNSVEEKRNSKMLQKVVLPSYEEALSLPSKTPEGGPAPPPYSEV"}}, "key": {"[1]": {"test_system": "hyperphosphorylation of Paratarg", "assay": "Inhibition experiments: LCLs cultured with kinase inhibitors, IEF and immunodetection with anti-STOML2", "assay_type": "cell-based, human", "details": "IEF analysis; for effect on hyperphosphorylation of paratarg: LCLs of healthy donors or patients", "method": "LCLs derived from healthy donors or patients were cultured in the presence of the kinase inhibitors at the indicated concentrations. Lysates were analysed by IEF and immunodetected with anti-STOML2. A shown in this figure, hyperphosphorylation is inhibited by staurosporine, ellagic acid and wortmannin. […] Using BIM_I and Rottlerin, PKC isoform delta or zeta could be identified as responsible for hyperphosphorylation. • a) Same as b), but with other concentrations of the inhibitors.\nLCLs were established by infection of PBMCs with EBV as described by Neumann et al (Blood 2005; 106:3105-13).\nStably transfected cell lines were cultured in the presence of inhibitory compounds as indicated. After 5 d cells were removed and analysed by IEF and immunodetection.\nIn MGUS/MM patients and their relatives hyperphosphorylated paratarg is expressed constitutively, while hyperphosphorylation of paratarg is temporary in all healthy persons and cell lines analysed. This was seen by culturing LCLs and cell lines in the presence of kinase or phosphatase inhibitors. The identification of Ser17 as the differential phosphorylation site led to the prediction of a […] (PKC) responsible for hyperphosphorylation. Culturing of LCLs and cell lines in the presence of suitable inhibitors (staurosporine, Wortmannin, Bisindolylmaleimid I) at concentrations as indicated below and followed by IEF analysis identifies the PKCzeta isoform as the active kinase (summarized in FIG. 16). This was verified by using highly specific PKCzeta pseudosubstrate as inhibitor (FIG. 16d). […] (FIG. 18)."}, "[2]": {"test_system": "paraproteins of serum pool #1 (MGUS/MM patients' sera)", "assay": "Serum profiling on high density protein arrays (paraprotein screening of hEx1 human fetal brain macroarray)", "assay_type": "binding", "design": "key: Paraprotein-binding quality/strength are ++, + and ±.; Paraprotein-binding quality/strength are ++, + and ±.; Paraprotein-binding quality/strength are ++, + and ±", "details": "serum pool #1 (n=114), each serum diluted 1:10^8", "method": "Screening analyses were performed on hEx1 high-density protein expression cDNA libraries, created in Hans Lehrach's laboratory at the Max Planck Institute for Molecular Genetics in Berlin (Germany) and obtained from the Reference Center of the German Human Genome Project (RZPD) (Bussow et al, 1998). These high-density filter membranes display proteins that were expressed from a modified pQE protein expression vector (Qiagen). This vector featured a hexahistidine tag, a T5 promoter and two lac operator sequences, which allowed repression during the growth phase by overexpression of the Lac repressor protein, and subsequent induction of protein expression with isopropyl-beta-D-thiogalactopyranoside (IPTG).\nHigh density protein arrays of the protein expression set of the hEx1 library were obtained from the German Resource Center for Genome Research (RZPD) and provided by Dr. Mahlknecht from our department. They consist of 37,200 independent clones derived from a human fetal brain cDNA expression library and were used for autoantibody detection. For serum profiling, the filters were blocked in 10% (w/v) non-fat, dry milk powder in TBST (TBS, 0.1% (v/v) Tween 20) at 4° C. overnight, washed twice in TBST, and incubated for 1 h with serum pool #1 at a dilution of 1:10^8 for each serum. Following three 30-min TBST washes and subsequent incubation with the secondary antibody (goat anti-human IgG biotinylated, Dianova, diluted 1:2.500) and Strep-PDX (1:15.000) in 2% (w/v) Milk/TBST, the filters were washed three times for 30 min in TBST. This was followed by detection using Pharmacia ECL system. Positive signals were localized according to the manufacturer's protocol. Corresponding clones were obtained from RZPD.\nIn this study we screened a human high-density protein array containing 37,200 independent recombinant proteins derived from a human fetal brain expression library with sera obtained from patients with monoclonal gammopathy of undetermined significance (MGUS) and multiple myeloma (MM).\nThe signal pattern obtained from the screening with the paraprotein pools at a dilution of 1:10^8 were compared with the patterns obtained from screening with the control sera from clinically healthy donors and to background incubations. […] 5′- and 3′-tag sequencing of these clones was performed, and their sequences were used for BLAST searches against public databases at NCBI.\nUsing serum pool #1 (paraprotein type: 15 IgA, 88 IgG, 11 oligoclonal, n=114) we identified 14 putative paraprotein targets on the human protein filter array (FIG. 1, Tab. 1). […] Sequence searches and comparisons using the in-frame sequences identified five known proteins and one unknown gene product derived from chromosome 8."}}, "data": [{"molecule": "CN[C@@H]1C[C@H]2O[C@@](C)([C@@H]1OC)n1c3ccccc3c3c4c(c5c6ccccc6n2c5c31)C(=O)NC4", "note": "[staurosporine]", "values": [{"measurement": "effect on hyperphosphorylation of paratarg", "setting": "[1]", "result": "inhibited"}]}, {"molecule": "CN(C)CCCn1cc(C2=C(c3c[nH]c4ccccc34)C(=O)NC2=O)c2ccccc21", "note": "[BIM_I, Bisindolylmaleimid I]", "values": [{"measurement": "kinase identified by inhibition of paratarg hyperphosphorylation", "setting": "[1]; LCLs, BIM_I at 6 μM", "result": "clearly identified PKCzeta as the kinase responsible"}]}, {"molecule": "O=c1oc2c(O)c(O)cc3c(=O)oc4c(O)c(O)cc1c4c23", "note": "[ellagic acid]", "values": [{"measurement": "effect on hyperphosphorylation of paratarg", "setting": "[1]", "result": "inhibited"}]}, {"molecule": "B1", "values": [{"measurement": "Signal-quality (paraprotein-binding quality/strength)", "setting": "[2]", "result": "±"}]}, {"molecule": "B2", "values": [{"measurement": "Signal-quality (paraprotein-binding quality/strength)", "setting": "[2]", "result": "++"}]}]}
